# In article PMC7366380, “Discovery of a Potent and Selective Covalent Inhibitor and Activity-Based Probe for the Deubiquitylating Enzyme UCHL1, with Antifibrotic Activity” (Journal of the American Chemical Society, 2020):
# Several values for one entry are separate records, joined by “and”; a condition that tells them apart may be missing. Equal entries are not always repeated.
# Experiments:
# Test in all cases: In-cell proteome-wide competitive ABPP, HEK293: other DUBs and proteins
# [1] = target: T1, DUBs and other proteins in HEK293 cells (Homo sapiens, UniProt Q96K76); settings: replicates A-C; for Log2 reporter intensity values: USP47: DMSO substract (FC); for Log2 reporter intensity values: USP47, DMSO subtracted
# T1 sequence (Q96K76 1-1375): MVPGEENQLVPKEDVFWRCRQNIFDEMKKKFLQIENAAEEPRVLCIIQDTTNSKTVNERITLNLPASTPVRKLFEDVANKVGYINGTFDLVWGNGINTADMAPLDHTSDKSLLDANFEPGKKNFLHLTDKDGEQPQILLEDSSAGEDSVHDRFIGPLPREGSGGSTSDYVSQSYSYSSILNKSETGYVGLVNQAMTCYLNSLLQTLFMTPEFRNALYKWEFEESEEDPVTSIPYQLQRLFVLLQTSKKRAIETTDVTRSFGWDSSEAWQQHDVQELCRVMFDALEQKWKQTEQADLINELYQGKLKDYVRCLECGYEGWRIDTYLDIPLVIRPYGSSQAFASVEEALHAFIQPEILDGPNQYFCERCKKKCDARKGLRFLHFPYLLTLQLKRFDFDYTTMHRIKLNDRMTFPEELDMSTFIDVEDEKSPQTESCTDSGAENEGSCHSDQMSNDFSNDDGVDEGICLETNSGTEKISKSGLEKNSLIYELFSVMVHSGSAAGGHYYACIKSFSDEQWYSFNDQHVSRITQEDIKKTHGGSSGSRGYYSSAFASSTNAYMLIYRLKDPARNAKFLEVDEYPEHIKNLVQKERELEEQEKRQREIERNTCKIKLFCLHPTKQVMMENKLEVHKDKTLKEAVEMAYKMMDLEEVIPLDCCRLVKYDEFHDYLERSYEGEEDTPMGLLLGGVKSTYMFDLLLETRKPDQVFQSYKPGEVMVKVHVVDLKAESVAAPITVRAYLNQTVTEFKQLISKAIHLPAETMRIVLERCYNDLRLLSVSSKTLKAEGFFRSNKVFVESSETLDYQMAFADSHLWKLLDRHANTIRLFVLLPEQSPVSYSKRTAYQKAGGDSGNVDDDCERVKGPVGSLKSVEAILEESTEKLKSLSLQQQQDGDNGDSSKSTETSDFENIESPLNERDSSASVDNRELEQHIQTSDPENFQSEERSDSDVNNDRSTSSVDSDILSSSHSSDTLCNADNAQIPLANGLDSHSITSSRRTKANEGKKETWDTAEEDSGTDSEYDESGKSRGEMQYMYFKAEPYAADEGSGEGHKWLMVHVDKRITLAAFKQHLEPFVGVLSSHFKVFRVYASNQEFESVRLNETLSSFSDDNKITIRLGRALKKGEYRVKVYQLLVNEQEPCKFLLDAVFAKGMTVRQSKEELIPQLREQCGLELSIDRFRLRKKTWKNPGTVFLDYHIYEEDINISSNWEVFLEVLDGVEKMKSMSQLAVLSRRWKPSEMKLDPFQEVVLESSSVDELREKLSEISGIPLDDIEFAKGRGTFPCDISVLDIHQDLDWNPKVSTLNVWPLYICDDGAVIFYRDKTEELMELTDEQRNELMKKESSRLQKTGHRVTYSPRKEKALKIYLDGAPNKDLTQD
# [2] = target: T2, DUBs and other proteins in HEK293 cells (Homo sapiens, UniProt Q9Y4E8); settings: replicates A-C; for Log2 reporter intensity values: USP15: DMSO substract (FC); for Log2 reporter intensity values: USP15, DMSO subtracted
# T2 sequence (Q9Y4E8 1-981): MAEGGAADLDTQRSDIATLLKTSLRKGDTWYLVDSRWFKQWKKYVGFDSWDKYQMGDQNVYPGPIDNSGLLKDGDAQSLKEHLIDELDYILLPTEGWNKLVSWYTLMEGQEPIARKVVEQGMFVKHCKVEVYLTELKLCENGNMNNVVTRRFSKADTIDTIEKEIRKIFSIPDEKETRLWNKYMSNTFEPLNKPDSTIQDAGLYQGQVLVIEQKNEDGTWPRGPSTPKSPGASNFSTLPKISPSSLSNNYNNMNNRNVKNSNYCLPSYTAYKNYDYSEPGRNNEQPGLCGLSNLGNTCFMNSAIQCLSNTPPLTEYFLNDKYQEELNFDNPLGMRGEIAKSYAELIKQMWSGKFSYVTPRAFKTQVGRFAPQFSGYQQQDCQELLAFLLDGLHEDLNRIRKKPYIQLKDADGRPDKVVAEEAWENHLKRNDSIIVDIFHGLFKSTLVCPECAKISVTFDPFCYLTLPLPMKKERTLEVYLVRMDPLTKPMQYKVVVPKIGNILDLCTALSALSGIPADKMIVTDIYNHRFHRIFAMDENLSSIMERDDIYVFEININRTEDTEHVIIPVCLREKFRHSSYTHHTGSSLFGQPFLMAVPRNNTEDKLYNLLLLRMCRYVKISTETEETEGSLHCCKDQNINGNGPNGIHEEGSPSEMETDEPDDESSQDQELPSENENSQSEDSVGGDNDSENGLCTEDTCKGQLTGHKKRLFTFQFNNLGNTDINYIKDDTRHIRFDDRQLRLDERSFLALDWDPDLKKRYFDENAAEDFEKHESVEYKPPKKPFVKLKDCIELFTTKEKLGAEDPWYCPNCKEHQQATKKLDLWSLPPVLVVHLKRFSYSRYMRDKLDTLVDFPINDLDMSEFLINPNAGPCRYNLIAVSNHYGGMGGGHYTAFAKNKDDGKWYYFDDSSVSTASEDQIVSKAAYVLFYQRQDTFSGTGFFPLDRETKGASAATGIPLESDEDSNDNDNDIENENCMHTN
# [3] = target: DUBs and other proteins in HEK293 cells (Homo sapiens, UniProt Q93008); settings: replicates A-C; for Log2 reporter intensity values: USP9X;USP9Y: DMSO substract (FC); for Log2 reporter intensity values: USP9X;USP9Y, DMSO subtracted
# [4] = target: DUBs and other proteins in HEK293 cells (Homo sapiens, UniProt O15372); settings: for Log2 reporter intensity values, EIF3H: TMT replicates; for Log2 reporter intensity values: EIF3H: DMSO substract (FC); for Log2 reporter intensity values: EIF3H / Log2 reporter intensity values: replicates A-C; for Log2 t-test Difference / Log2 reporter intensity values: EIF3H
# [5] = 1 at 1 μM, competition with ABP 2
# [6] = 1 at 4 μM, competition with ABP 2
# Chain of DUBs and other proteins in HEK293 cells (Homo sapiens, UniProt O15372) (O15372 whole entry): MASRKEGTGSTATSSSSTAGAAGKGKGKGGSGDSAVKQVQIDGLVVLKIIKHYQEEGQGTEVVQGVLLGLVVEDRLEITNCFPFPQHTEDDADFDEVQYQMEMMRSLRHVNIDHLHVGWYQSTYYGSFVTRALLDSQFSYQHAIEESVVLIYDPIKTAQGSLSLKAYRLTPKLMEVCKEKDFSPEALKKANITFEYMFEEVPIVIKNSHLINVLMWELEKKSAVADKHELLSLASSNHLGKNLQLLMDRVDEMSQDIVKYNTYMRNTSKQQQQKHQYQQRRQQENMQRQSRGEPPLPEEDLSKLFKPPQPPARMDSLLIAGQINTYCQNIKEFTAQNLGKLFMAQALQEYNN
# Chain of DUBs and other proteins in HEK293 cells (Homo sapiens, UniProt Q93008) (Q93008 whole entry): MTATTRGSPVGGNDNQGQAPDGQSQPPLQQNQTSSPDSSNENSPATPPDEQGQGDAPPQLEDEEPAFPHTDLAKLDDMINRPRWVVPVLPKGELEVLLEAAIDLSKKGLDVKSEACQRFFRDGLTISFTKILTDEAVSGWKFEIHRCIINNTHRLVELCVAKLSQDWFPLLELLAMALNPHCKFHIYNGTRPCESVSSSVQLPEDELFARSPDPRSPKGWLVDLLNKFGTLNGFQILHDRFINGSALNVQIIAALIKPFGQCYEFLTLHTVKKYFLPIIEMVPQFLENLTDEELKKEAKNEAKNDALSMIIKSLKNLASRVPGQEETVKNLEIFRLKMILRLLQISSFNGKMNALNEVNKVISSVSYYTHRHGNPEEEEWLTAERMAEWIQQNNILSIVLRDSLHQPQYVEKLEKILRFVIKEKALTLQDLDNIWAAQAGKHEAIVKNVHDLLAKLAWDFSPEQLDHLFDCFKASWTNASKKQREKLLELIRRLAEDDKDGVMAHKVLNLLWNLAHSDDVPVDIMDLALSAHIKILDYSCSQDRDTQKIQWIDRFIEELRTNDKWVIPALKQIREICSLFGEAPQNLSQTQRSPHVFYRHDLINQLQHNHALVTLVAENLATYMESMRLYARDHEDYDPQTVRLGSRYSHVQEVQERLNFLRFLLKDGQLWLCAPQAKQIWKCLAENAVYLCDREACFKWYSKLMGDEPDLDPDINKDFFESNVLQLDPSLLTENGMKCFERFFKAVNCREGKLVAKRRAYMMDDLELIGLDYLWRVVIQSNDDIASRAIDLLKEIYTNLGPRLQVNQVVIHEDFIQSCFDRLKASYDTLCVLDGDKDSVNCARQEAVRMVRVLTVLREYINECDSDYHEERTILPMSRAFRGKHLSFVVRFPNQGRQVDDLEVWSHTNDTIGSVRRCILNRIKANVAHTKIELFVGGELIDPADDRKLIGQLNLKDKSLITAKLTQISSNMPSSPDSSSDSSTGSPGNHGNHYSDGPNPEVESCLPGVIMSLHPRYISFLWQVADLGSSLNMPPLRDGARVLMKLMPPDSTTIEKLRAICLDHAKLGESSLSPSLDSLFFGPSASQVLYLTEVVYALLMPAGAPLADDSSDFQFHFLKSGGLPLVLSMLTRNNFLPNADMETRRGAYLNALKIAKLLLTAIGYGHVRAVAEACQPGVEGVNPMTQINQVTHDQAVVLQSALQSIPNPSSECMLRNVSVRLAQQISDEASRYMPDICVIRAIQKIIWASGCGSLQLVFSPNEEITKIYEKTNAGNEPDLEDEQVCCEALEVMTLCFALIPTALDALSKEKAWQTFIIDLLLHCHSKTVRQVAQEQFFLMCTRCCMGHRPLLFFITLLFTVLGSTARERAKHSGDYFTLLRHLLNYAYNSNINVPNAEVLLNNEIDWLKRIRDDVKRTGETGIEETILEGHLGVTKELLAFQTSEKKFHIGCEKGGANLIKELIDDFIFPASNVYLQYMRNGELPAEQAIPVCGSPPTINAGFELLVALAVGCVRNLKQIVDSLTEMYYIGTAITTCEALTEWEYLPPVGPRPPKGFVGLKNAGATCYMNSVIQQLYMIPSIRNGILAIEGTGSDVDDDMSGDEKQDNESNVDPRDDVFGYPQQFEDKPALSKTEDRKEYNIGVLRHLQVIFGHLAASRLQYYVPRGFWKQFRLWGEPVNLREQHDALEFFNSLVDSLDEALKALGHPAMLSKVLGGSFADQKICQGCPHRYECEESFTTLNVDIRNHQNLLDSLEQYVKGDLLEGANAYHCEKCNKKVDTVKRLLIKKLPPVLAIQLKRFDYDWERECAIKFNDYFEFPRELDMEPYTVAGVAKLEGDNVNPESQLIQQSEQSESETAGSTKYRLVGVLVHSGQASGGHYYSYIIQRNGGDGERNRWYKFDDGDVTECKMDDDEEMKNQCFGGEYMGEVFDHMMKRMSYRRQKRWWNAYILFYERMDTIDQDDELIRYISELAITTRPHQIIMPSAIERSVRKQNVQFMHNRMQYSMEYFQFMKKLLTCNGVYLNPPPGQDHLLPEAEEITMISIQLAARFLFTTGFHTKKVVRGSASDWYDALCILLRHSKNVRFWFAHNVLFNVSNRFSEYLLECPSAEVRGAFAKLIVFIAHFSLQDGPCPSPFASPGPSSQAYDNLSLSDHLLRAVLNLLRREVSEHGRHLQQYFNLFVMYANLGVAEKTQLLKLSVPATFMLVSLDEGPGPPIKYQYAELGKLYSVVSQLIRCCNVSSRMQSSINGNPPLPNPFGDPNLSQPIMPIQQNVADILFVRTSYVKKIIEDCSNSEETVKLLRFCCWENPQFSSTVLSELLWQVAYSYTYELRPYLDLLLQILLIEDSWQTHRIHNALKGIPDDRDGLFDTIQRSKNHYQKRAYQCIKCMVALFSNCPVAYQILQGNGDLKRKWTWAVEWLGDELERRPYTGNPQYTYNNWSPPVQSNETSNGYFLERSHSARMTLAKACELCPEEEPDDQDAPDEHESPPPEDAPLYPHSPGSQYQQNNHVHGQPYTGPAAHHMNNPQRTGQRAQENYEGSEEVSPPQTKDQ
smiles,measurement,setting,value
N#CN1CCC[C@H]1C(=O)N1CCc2c(-c3c[nH]c4ncccc34)cccc21 [Compound 1],Log2 reporter intensity values: USP47,[1]; [5],0.973 and 1.08 and 1.022
same,Log2 reporter intensity values: USP47,[1]; [6],1.072 and 1.012 and 0.9583
same,Log2 reporter intensity values,[1]; 1_1 μM,-0.02716 and 0.07955 and 0.02151
same,Log2 reporter intensity values,[1]; 1_4 μM,0.07173 and 0.01208 and -0.04184
same,Log2 reporter intensity values,[1]; 1 at 1 μM,-0.03956 and 0.1106 and 0.03085
same,Log2 reporter intensity values,[1]; 1 at 4 μM,0.1001 and 0.01747 and -0.0615
same,Log2 reporter intensity values: USP15,[2]; [5],0.9886 and 1.029 and 1.017
same,Log2 reporter intensity values: USP15,[2]; [6],1.093 and 1.191 and 1.05
same,Log2 reporter intensity values,[2]; 1_1 μM,-0.01164 and 0.02918 and 0.01631
same,Log2 reporter intensity values,[2]; 1_4 μM,0.09302 and 0.1906 and 0.04957
same,Log2 reporter intensity values,[2]; 1 at 1 μM,-0.0165 and 0.04186 and 0.02371
same,Log2 reporter intensity values,[2]; 1 at 4 μM,0.1287 and 0.252 and 0.07016
same,Log2 reporter intensity values: USP9X;USP9Y,[3]; [5],1.022 (2×) and 0.9739
same,Log2 reporter intensity values: USP9X;USP9Y,[3]; [6],0.949 and 1.006 and 0.9815
same,Log2 reporter intensity values,[3]; 1_1 μM,0.0219 and 0.02206 and -0.02613
same,Log2 reporter intensity values,[3]; 1_4 μM,-0.05104 and 0.005497 and -0.01849
same,Log2 reporter intensity values,[3]; 1 at 1 μM,0.0313 and 0.03153 and -0.03815
same,Log2 reporter intensity values,[3]; 1 at 4 μM,-0.07554 and 0.007953 and -0.02689
same,"Log2 reporter intensity values, EIF3H","[4]; 1 μM 1 (60 min) + 20 nM ABP 2 (10 min), All values",-0.09256 and -0.05547 and -0.03085
same,"Log2 reporter intensity values, EIF3H","[4]; 1 μM 1 (60 min) + 20 nM ABP 2 (10 min), DMSO subtracted",-0.1222 and -0.08506 and -0.06044
same,"Log2 reporter intensity values, EIF3H","[4]; 4 μM 1 (60 min) + 20 nM ABP 2 (10 min), All values",-0.07138 and -0.1308 and -0.1362
same,"Log2 reporter intensity values, EIF3H","[4]; 4 μM 1 (60 min) + 20 nM ABP 2 (10 min), DMSO subtracted",-0.101 and -0.1603 and -0.1658
same,Log2 reporter intensity values: EIF3H,[4]; [5],0.9188 and 0.9427 and 0.959
same,Log2 reporter intensity values: EIF3H,[4]; [6],0.9324 and 0.8948 and 0.8914
same,Log2 t-test Difference,[4]; 1 - 1 μM,-0.08557
same,Log2 t-test Difference,[4]; 1 - 4 μM,-0.1387
same,Log2 reporter intensity values,"[4]; 1_1 μM, DMSO subtracted",-0.08133 and -0.0574 and -0.04117
same,Log2 reporter intensity values,"[4]; 1_4 μM, DMSO subtracted",-0.06774 and -0.1053 and -0.1087
same,Log2 reporter intensity values,"[4]; 1 at 1 μM, DMSO subtracted",-0.1222 and -0.08506 and -0.06044
same,Log2 reporter intensity values,"[4]; 1 at 4 μM, DMSO subtracted",-0.101 and -0.1603 and -0.1658
C#Cc1cnc2[nH]cc(-c3cccc4c3CCN4C(=O)[C@@H]3CCCN3C#N)c2c1 [Compound 2],Log2 reporter intensity values: USP47,[1]; 20 nM ABP 2 alone,0.9076 and 0.9784 and 0.8828
same,Log2 reporter intensity values,[1]; 20 nM ABP 2,-0.1398 and -0.03153 and -0.1799 and -0.09247 and -0.02173 and -0.1173
same,Log2 reporter intensity values: USP15,[2]; 20 nM ABP 2 alone,1.045 and 1.025 and 1.159
same,Log2 reporter intensity values,[2]; 20 nM ABP 2,0.06335 and 0.03549 and 0.2127 and 0.04463 and 0.02465 and 0.1586
same,Log2 reporter intensity values: USP9X;USP9Y,[3]; 20 nM ABP 2 alone,0.9211 and 0.9416 and 0.9589
same,Log2 reporter intensity values,[3]; 20 nM ABP 2,-0.08683 and -0.06047 and -0.07892 and -0.05844 and -0.04108
same,"Log2 reporter intensity values, EIF3H","[4]; 20 nM ABP 2 (10 min), no competitor, All values",0.02449 and 0.02357 and 0.02975
same,"Log2 reporter intensity values, EIF3H","[4]; 20 nM ABP 2 (10 min), no competitor, DMSO subtracted",-0.005103 and -0.006015 and 0.0001635
same,Log2 reporter intensity values: EIF3H,[4]; 20 nM ABP 2 alone,0.9965 and 0.9958 and 1
same,Log2 reporter intensity values,"[4]; 20 nM ABP 2, DMSO subtracted",-0.005103 and -0.006015 and 0.0001635 and -0.003675 and -0.004305 and -3.08E-05
same,Log2 t-test Difference,[4]; ABP 2 - 20 nM,-0.003651
